From patent publication US9174932B2, “CaSR agonists” (AJINOMOTO CO., INC., priority 2008, dated 2015)
pEC50: −log10 of the molar value.

Legend:
human CaSR = molecular target: T1, human CaSR (Homo sapiens, UniProt P41180, E1011Q); assay: Evaluation of CaSR agonistic activity (293E cells transfected with hCaSR, Ca2+ fluorescent indicator, FLIPR); type: cell-based; conditions: 293E cells expressing human CaSR; concentration giving activation rate 50%
T1 construct: expressed in transfected cells; host or cells: 293E cells (HEK293 expressing EBNA1, ATCC CRL-10852), transient transfection of hCaSR/pcDNA3.1
T1 sequence (P41180 20-1078 E1011Q): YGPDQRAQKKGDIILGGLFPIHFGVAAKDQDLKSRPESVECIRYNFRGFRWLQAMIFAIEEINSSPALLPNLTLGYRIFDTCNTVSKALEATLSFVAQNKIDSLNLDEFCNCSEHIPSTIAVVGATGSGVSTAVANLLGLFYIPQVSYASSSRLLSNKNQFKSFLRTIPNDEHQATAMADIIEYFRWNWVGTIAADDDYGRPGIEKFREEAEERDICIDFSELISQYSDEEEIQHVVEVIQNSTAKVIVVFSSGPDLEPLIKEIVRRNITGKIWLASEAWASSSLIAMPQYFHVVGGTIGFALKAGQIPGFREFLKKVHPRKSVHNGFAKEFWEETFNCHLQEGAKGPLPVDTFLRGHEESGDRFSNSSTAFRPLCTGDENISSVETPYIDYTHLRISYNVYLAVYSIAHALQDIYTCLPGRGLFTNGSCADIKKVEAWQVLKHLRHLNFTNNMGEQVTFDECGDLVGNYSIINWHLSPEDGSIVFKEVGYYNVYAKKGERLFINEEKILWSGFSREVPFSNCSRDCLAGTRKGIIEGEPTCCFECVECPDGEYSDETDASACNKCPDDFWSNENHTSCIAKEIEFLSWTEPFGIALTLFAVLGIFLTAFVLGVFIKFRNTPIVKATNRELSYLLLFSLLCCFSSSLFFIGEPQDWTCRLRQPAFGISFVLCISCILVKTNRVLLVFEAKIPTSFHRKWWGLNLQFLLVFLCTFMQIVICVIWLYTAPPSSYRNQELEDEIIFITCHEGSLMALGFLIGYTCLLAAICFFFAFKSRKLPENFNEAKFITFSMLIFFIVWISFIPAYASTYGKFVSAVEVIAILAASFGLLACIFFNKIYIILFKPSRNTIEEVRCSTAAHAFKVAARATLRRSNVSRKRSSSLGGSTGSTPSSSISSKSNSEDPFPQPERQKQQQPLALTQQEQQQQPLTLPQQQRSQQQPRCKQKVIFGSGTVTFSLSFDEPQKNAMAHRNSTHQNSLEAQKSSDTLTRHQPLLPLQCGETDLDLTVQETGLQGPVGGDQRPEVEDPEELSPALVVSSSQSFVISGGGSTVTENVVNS
Protocol: 293E cells (HEK293 cell expressing EBNA1, ATCC No. CRL-10852) were cultured in DMEM containing 10% fetal bovine serum (Dulbecco's modified Eagle medium containing […] Glucose, by NACALAI TESQUE, INC.), in the presence of 250 μg/mL of G418. The cells were spread on a petri dish of 10 cm diameter in 1.8×10^6 cells/15 mL. After leaving them in the CO2 incubator (5% CO2, 37° C.) for 24 hours, plasmid expressing human CaSR: hCaSR/pcDNA3.1 was transfected with a transfection reagent: Mirus TransIT 293 (by Takara Bio Inc.). After leaving it in the CO2 incubator for 24 hours, the cells were collected by DMEM containing 10% fetal bovine serum and seeded on poly-D-lysine coat 384 well plate (by Falcon) in 15,000 cells/well. After leaving them in the CO2 incubator for 24 hours, the medium was removed. Then, 50 μL/well of Ca^2+ fluorescent indicator: Calcium 4 Assay Kit (by Molecular Devices) that was dissolved in an assay buffer (146 mM NaCl, 5 mM KCl, 1 mM MgSO4, 1 mg/mL Glucose, 20 mM HEPES (pH 7.2), 1.5 mM CaCl2) was added thereto, and left at 37° C. for 1 hour and at room temperature for 30 minutes to absorb the fluorescent indicator. The 384 well plate was transferred to FLIPR (by Molecular Devices). Then, 12.5 μL/well of a compound that was dissolved in a 0.1% BSA containing assay buffer was added thereto, and change in fluorescence intensity was measured for 3 minutes. Meanwhile, Compound No. 20 was purchased from Bachem.
The difference between the maximum value and the minimum value (RFU(Max−Min)) of the fluorescence intensity before and after adding a compound was automatically calculated by FLIPR. RFU(Max−Min) when adding a compound in maximum concentration was defined as 100%; and RFU(Max−Min) when adding DMSO instead of the compound in the same concentration as that of the compound was defined as 0%.

rat large intestine loop = assay: Effect of a CaSR agonist on water absorption in rat large intestine loop method (PGE2-treated); type: in vivo; conditions: male SD (IGS) rat large intestine loop, PGE2 i.p.; compound in Tyrode solution
Protocol: The cecum and large intestine were taken out from the abdomen of a male SD (IGS) rat under pentobarbital anesthesia, and a large intestine loop was prepared by ligating a part 5 cm just below the cecum. Immediately after preparing the loop, PGE2 (4 μg/mL/kg, SIGMA) was intraperitoneally administered. 30 minutes later, 2 mL of Tyrode solution (NaCl 136.9 mM, KCl 2.7 mM, CaCl2.2H2O 1.8 mM, MgCl2.6H2O 1.04 mM, NaH2PO4.2H2O 0.04 mM, glucose 5.55 mM, NaHCO3 11.9 mM) was poured in the prepared loop. 1 hour later, the weight of the loop, the weight thereof when the liquid was removed from the loop, and the loop area were measured to calculate the weight per unit area of the liquid that remains in the loop.
A test compound was tested by dissolving it in Tyrode solution that was adjusted to pH 6.5 to 7.5.
The remaining liquid weight per unit area (g/cm^2) was calculated by the following formula. Remaining liquid weight per unit area (g/cm^2)=(loop weight−loop weight when the liquid was removed from the loop)/loop area
Water absorption was evaluated by calculating the inhibition ratio by the following formula. Inhibition ration (%)=100−(remaining liquid weight per unit area with a drug−basic average remaining liquid weight per unit area)/(average remaining liquid weight per unit area of vehicle−basic average remaining liquid weight per unit area)×100 […]

[1] = Quantitative sensory evaluation test of kokumi-imparting activity; set-up: species or system human; conditions: for Intensity of kokumi After taste / Intensity of kokumi First-middle taste: score control 0, strong 3, very strong 5, n=4
Protocol: The kokumi-imparting effects can be confirmed by the method such as a gustatory test by a human being as mentioned in Examples of the present invention, but it is not limited to those.
On compounds wherein a calcium receptor activating action was found (sodium salts of Compound Nos. 1, 7 and 21), the intensity of kokumi-imparting activity was examined by a quantitative sensory evaluation test. The used compound was prepared by dissolving 525 mg of the compound No. 1 described in Synthetic Example 1 of Example I in 5 mL of distilled water, adjusting it to pH6.5 to 7 by adding 16.4 mL of 0.1M sodium hydroxide solution thereto, and freeze-drying it to obtain a sodium salt thereof. Further, the used compound was also prepared as follows. 500 mg of the compound No. 7 described in Synthetic Example 7 of Example I was suspended in 5 mL of distilled water. 1.61 mL of 1M sodium hydroxide and 0.8 mL of 2M hydrochloric acid were added thereto at 0° C. respectively to precipitate a solid substance. The precipitated solid substance was taken by filtration and dried under reduced pressure at 40° C. to obtain 426 mg of the compound No. 7. The obtained solid substance was suspended in 10 mL of distilled water. 1.2 mL of 1M sodium hydroxide was added thereto and freeze-dried to obtain a sodium salt thereof. The compound No. 21 was used in the form of a sodium salt of the compound No. 21 described in Synthetic Example 21 of Example I, which was prepared by the same method as mentioned above.
A quantitative sensory evaluation test was conducted as follows. 0.000001 to 0.1 g/dL of the compound(s) (a sodium salt of No. 1) was mixed as a sample to distilled water containing glutamic sodium (0.05 g/dL), inosine monophosphate (0.05 g/dL) and sodium chloride (0.5 g/dL). Then, the intensity of kokumi-imparting activity was examined at that time. As a reference, γ Glu-Cys-Gly and γ Glu-Val-Gly were used, each of which is a known kokumi-imparting component. As for a sample that becomes acidic to an additive-free control after dissolving the sample, it was used by being adjusted with sodium hydroxide to become within pH±0.2 to the additive-free control. As for sensory scoring, it was defined as a control: 0, strong: 3, and very strong: 5; and n=4. Meanwhile, “first-middle taste” means the taste combining first taste and middle taste. The kokumi-imparting activity was widely seen in the above addition concentrations, and the results of the representative concentrations are shown in Table 5.

Row | pEC50 (human CaSR) | SMILES | Water absorption (rat large intestine loop) | Intensity of kokumi After taste ([1]; Conc. 0.00005 g/dL) | Intensity of kokumi First-middle taste ([1]; Conc. 0.00005 g/dL) | Comments ([1]; Conc. 0.0001 g/dL) | Intensity of kokumi After taste ([1]; Conc. 0.0001 g/dL) | Intensity of kokumi First-middle taste ([1]; Conc. 0.0001 g/dL) | Intensity of kokumi After taste ([1]; Conc. 0.0005 g/dL) | Intensity of kokumi First-middle taste ([1]; Conc. 0.0005 g/dL)
1 | 7.92 | N[C@@H](CCC(=O)Nc1cccc(S(=O)(=O)O)c1)C(=O)O [Compound No. 1, N^5-(3-sulfophenyl)-L-glutamine] | promoted in a dose-dependent manner | – | – | – | – | – | – | –
2 | 8.72 | N[C@@H](CCC(=O)Nc1cc(Cl)cc(S(=O)(=O)O)c1O)C(=O)O [Compound No. 7, N^5-(5-chloro-2-hydroxy-3-sulfophenyl)-L-glutamine] | promoted in a dose-dependent manner | – | – | – | – | – | – | –
3 | – | N[C@@H](CCC(=O)Nc1cc(Cl)cc(S(=O)(=O)[O-])c1O)C(=O)O.[Na+] [No.7-Na salt] | – | 2.5 | 2.2 | There is about the same thickness | 3.2 | 2.5 | 4.0 | 3.3
